{"source": "patent US20220264910A1", "about": "“COMPOSITIONS COMPRISING AMINO ACIDS AND A FURTHER COMPONENT FOR THE SUPPLY OF AMINO ACIDS TO A MONOGASTRIC ANIMAL SUCH AS A HUMAN OR A PIG” (VETAGRO INTERNATIONAL S.R.L., priority 2019, published 2022)", "conditions": "pig, in vivo, po"}
{"smiles": "C/C=C/C=C/C(=O)O", "note": "[sorbic acid]", "values": [{"measurement": "presence of the marker in the various intestinal tracts", "value": "present in the various intestinal tracts only when administered in encapsulated form in the lipid matrix"}]}
{"smiles": "COc1cc(C=O)ccc1O", "note": "[vanillin]", "values": [{"measurement": "presence of the marker in the various intestinal tracts", "value": "present in the various intestinal tracts only when administered in encapsulated form in the lipid matrix"}]}
